The subject of this experiment is green peach apid (Myzus persicae). Nature of the experiment: Myzus test (cabbage leaves dipped). The format is in vivo. The settings on record: after 6 days; active compound concentration 0.1%. The protocol:
Solvent: 7 parts by weight of dimethylformamide
Emulsifier: 1 part by weight of alkylaryl polyglycol ether
To produce a suitable preparation of active compound, 1 part by weight of active compound is mixed with the stated amount of solvent and the stated amount of emulsifier, and the concentrate is diluted with water to the desired concentration.
Cabbage leaves (Brassica oleracea) which are severely infested with the green peach apid (Myzus persicae) are treated by being dipped into the preparation of active compound of the desired concentration.
After the specified periods of time, the destruction in % is determined. 100% means that all the aphids have been killed; 0% means that none of the aphids have been killed.

This note sets out measurements from patent US6774133B2, “Substituted spiroheterocyclic 1H-3-aryl-pyrrolidine-2,4-dione derivatives, processes for their preparation, and their use as pesticides” (Bayer Aktiengesellschaft, priority 1993, dated 2004).

Molecules are shown by their SMILES.

As to `Cc1cc(C)c(C2=C(O)C3(CCCCC3)NC2=O)c(C)c1` [(A)], the destruction rate result is listed as “no destruction”. Turning to `CC(C)C(=O)OC1=C(c2ccc(Cl)cc2Cl)C(=O)NC12CCCCC2` [(B)], the destruction rate was determined as 20%.
